Assay results published in patent US10721934B2, “Enhanced preservative” (Arch Chemicals, Inc., priority 2013, dated 2020).

Columns and labels:
Type in all cases: cell-based
[1] = test system: mixed bacterial inoculum (Pseudomonas aeruginosa, Enterobacter cloacae, Escherichia coli, Acinetobacter calcoaceticus); assay: Repeated inoculation of standard acrylic paint, streak plate rating
Experimental: In the following experiments, a pyrithione, an isothiazolinone, and a biocide enhancing agent in accordance with the present disclosure were combined with a standard acrylic paint. The concentrations of the pyrithione, the isothiazolinone and the biocide enhancing agent were varied. The pyrithione, the isothiazolinone and the biocide enhancing agent were added alone and in various mixtures to the standard acrylic paint.
The acrylic paint was then inoculated three times using a mixed bacterial inoculum. The bacterial inoculum, which comprised a bacterial suspension in water, contained the following four bacteria in equal proportions.
The samples were streak plated at 24, 48, and 72 hours after inoculation. The streak plates were rated as follows;

Aspergillus brasiliensis = assay: MIC test, 96 well microtiter plate; conditions: Aspergillus brasiliensis, read-out: Minimum Inhibitory Concentration
Experimental: (§1) MIC set up: A 96 well microtiter plate Minimum Inhibitory Concentration (MIC) test was run in broth suitable for the test organism. Serially diluted actives were prepared in sterilized water, and the start-up concentration varied depending on the efficacy range. Inocula prepared in 2× suitable broth was added into each well, and the final concentrations of bacteria were adjusted to approximately 5×10^5.
(§2) Further MIC tests were conducted using different amine compounds in combination with a pyrithione and two different isothiazolinones. The procedures described in Example No. 1 were used.

Candida albicans = assay: MIC test, 96 well microtiter plate; conditions: Candida albicans, read-out: Minimum Inhibitory Concentration
Experimental: as §1, §2

Escherichia coli = assay: MIC test, 96 well microtiter plate; conditions: Escherichia coli, read-out: Minimum Inhibitory Concentration
Experimental: as §1, §2

Staphylococcus aureus = assay: MIC test, 96 well microtiter plate; conditions: Staphylococcus aureus, read-out: Minimum Inhibitory Concentration
Experimental: as §1, §2

Aureobasidium pullulans = assay: MIC test, 96 well microtiter plate; conditions: Aureobasidium pullulans, read-out: Minimum Inhibitory Concentration
Experimental: as §1, §2

CCCCCCCCCCCC[N+](C)(C)[O-] [CDMA Oxide, cocodimethylamine oxide]
streak plate rating ([1]; Set Five, CDMA Oxide 1200 ppm, 1st inoculation 24 h): 5 (>45 viable microorganisms Severely contaminated)
streak plate rating ([1]; Set Five, CDMA Oxide 1200 ppm, 1st inoculation 48 h): 5 (>45 viable microorganisms Severely contaminated)
streak plate rating ([1]; Set Five, CDMA Oxide 1200 ppm, 1st inoculation 72 h): 5 (>45 viable microorganisms Severely contaminated)
streak plate rating ([1]; Set Five, CDMA Oxide 1200 ppm, 2nd inoculation 24 h): 5 (>45 viable microorganisms Severely contaminated)
streak plate rating ([1]; Set Five, CDMA Oxide 1200 ppm, 2nd inoculation 48 h): 5 (>45 viable microorganisms Severely contaminated)
streak plate rating ([1]; Set Five, CDMA Oxide 1200 ppm, 2nd inoculation 72 h): 5 (>45 viable microorganisms Severely contaminated)
streak plate rating ([1]; Set Five, CDMA Oxide 1200 ppm, 3rd inoculation 24 h): 5 (>45 viable microorganisms Severely contaminated)
streak plate rating ([1]; Set Five, CDMA Oxide 1200 ppm, 3rd inoculation 48 h): 5 (>45 viable microorganisms Severely contaminated)
streak plate rating ([1]; Set Five, CDMA Oxide 1200 ppm, 3rd inoculation 72 h): 5 (>45 viable microorganisms Severely contaminated)
streak plate rating ([1]; Set Two, CDMA Oxide alone, ppm not given, 1st inoculation 24 h): 5 (>45 viable microorganisms Severely contaminated)
streak plate rating ([1]; Set Two, CDMA Oxide alone, ppm not given, 1st inoculation 48 h): 5 (>45 viable microorganisms Severely contaminated)
streak plate rating ([1]; Set Two, CDMA Oxide alone, ppm not given, 1st inoculation 72 h): 5 (>45 viable microorganisms Severely contaminated)
streak plate rating ([1]; Set Two, CDMA Oxide alone, ppm not given, 2nd inoculation 24 h): 5 (>45 viable microorganisms Severely contaminated)
streak plate rating ([1]; Set Two, CDMA Oxide alone, ppm not given, 2nd inoculation 48 h): 5 (>45 viable microorganisms Severely contaminated)
streak plate rating ([1]; Set Two, CDMA Oxide alone, ppm not given, 2nd inoculation 72 h): 5 (>45 viable microorganisms Severely contaminated)
streak plate rating ([1]; Set Two, CDMA Oxide alone, ppm not given, 3rd inoculation 24 h): 5 (>45 viable microorganisms Severely contaminated)
streak plate rating ([1]; Set Two, CDMA Oxide alone, ppm not given, 3rd inoculation 48 h): 5 (>45 viable microorganisms Severely contaminated)
streak plate rating ([1]; Set Two, CDMA Oxide alone, ppm not given, 3rd inoculation 72 h): 5 (>45 viable microorganisms Severely contaminated)
MIC (Aspergillus brasiliensis): 17.4 µg/mL
MIC (Candida albicans): 13.9 µg/mL
MIC (Escherichia coli): 557 µg/mL
MIC (Staphylococcus aureus): 13.9 µg/mL
MIC (Aureobasidium pullulans): 13.9 µg/mL
